Assay results reported in ChEMBL document CHEMBL2331378, “Synthesis and discovery of novel piperidone-grafted mono- and bis-spirooxindole-hexahydropyrrolizines as potent cholinesterase inhibitors” (Bioorg Med Chem, 2013).

Columns and labels:
[1] = molecular target: Cholinesterase (Equus caballus, UniProt P81908); assay: Inhibition of equine serum BuChE using S-butyrylthiocholine chloride substrate by Ellman's method based spectrophotometry
[2] = Selectivity index, ratio of IC50 for equine serum BuChE to IC50 for AChE (unknown origin)
[3] = Selectivity index, ratio of IC50 for AChE (unknown origin) to IC50 for equine serum BuChE
[4] = molecular target: Acetylcholinesterase (Homo sapiens, UniProt P22303); assay: Inhibition of AChE (unknown origin) using acetylthiocholine iodide substrate by Ellman's method based spectrophotometry
Sequence of Acetylcholinesterase (P22303 whole entry): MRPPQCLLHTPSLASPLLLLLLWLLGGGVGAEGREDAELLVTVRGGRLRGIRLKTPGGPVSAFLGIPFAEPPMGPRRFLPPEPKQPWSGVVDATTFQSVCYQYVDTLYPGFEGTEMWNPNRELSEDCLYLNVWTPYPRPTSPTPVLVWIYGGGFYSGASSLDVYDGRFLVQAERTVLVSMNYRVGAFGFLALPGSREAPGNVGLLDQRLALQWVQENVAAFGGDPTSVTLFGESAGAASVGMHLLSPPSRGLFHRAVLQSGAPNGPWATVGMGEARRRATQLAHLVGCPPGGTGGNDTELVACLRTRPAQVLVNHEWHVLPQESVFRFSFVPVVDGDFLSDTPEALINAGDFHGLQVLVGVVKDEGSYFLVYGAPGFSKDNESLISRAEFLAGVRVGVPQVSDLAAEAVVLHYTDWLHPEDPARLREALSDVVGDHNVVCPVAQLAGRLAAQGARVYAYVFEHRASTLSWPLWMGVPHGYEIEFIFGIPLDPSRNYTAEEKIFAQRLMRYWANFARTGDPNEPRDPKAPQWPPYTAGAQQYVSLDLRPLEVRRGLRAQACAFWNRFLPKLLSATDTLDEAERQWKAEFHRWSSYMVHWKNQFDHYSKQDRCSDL

Sequence of Cholinesterase (P81908 whole entry): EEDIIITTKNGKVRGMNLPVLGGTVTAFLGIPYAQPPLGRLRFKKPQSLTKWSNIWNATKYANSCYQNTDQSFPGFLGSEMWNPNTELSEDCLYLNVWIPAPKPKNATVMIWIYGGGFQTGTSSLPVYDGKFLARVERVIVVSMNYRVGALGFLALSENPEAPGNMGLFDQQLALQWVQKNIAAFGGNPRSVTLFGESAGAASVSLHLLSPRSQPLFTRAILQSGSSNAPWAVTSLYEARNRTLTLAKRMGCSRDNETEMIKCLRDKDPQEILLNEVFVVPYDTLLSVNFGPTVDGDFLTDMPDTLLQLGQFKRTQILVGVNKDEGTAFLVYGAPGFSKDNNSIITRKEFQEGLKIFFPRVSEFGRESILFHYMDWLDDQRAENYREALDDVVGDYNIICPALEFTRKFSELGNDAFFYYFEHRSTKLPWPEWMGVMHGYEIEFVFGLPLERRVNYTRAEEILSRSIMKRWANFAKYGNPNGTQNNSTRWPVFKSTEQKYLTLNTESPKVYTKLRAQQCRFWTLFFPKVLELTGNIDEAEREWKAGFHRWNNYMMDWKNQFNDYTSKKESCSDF

Structure (SMILES) | IC50 [1] [µM] | Ratio IC50 [2] | Ratio IC50 [3] | IC50 [4] [µM]
O=C1/C(=C/c2ccccc2F)CN(C(=O)C[C@H]2C[C@H]3CCCN3[C@]23C(=O)Nc2ccccc23)C/C1=C\c1ccccc1F (racemic) | 3.5 | 0.1 | 9.82 | 34.4
O=C(C[C@H]1C[C@H]2CCCN2[C@]12C(=O)Nc1ccccc12)N1C/C(=C\c2ccccc2)C(=O)[C@]2(C[C@H]3CCCN3[C@@]23C(=O)Nc2ccccc23)C1 (racemic) | 18.2 | 0.93 | 1.08 | 19.7
Cc1ccccc1/C=C1\CN(C(=O)C[C@H]2C[C@H]3CCCN3[C@]23C(=O)Nc2ccccc23)C[C@@]2(C[C@H]3CCCN3[C@@]23C(=O)Nc2ccccc23)C1=O (racemic) | 13 | 0.47 | 2.12 | 27.5
C=CC(=O)N1C/C(=C\c2cccc([N+](=O)[O-])c2)C(=O)/C(=C/c2cccc([N+](=O)[O-])c2)C1 | 51.2 | 5.24 | 0.19 | 9.76
C=CC(=O)N1C/C(=C\c2ccc(Cl)cc2Cl)C(=O)/C(=C/c2ccc(Cl)cc2Cl)C1 | 29.4 | 1.86 | 0.54 | 15.8
O=C(C[C@H]1C[C@H]2CCCN2[C@]12C(=O)Nc1ccccc12)N1C/C(=C\c2ccccc2Cl)C(=O)[C@]2(C[C@H]3CCCN3[C@@]23C(=O)Nc2ccccc23)C1 (racemic) | 11.7 | 0.86 | 1.16 | 13.6
C=CC(=O)N1C/C(=C\c2ccccc2C)C(=O)/C(=C/c2ccccc2C)C1 | 30 | 1.73 | 0.58 | 17.4
O=C1/C(=C/c2ccc(Cl)cc2Cl)CN(C(=O)C[C@H]2C[C@H]3CCCN3[C@]23C(=O)Nc2ccccc23)C/C1=C\c1ccc(Cl)cc1Cl (racemic) | 21.2 | 5.15 | 0.19 | 4.11
O=C(C[C@H]1C[C@H]2CCCN2[C@]12C(=O)Nc1ccccc12)N1C/C(=C\c2cccc([N+](=O)[O-])c2)C(=O)[C@]2(C[C@H]3CCCN3[C@@]23C(=O)Nc2ccccc23)C1 (racemic) | 24.3 | 0.91 | 1.1 | 26.6
O=C(C[C@H]1C[C@H]2CCCN2[C@]12C(=O)Nc1ccccc12)N1C/C(=C\c2ccc(Cl)cc2Cl)C(=O)[C@]2(C[C@H]3CCCN3[C@@]23C(=O)Nc2ccccc23)C1 (racemic) | 9.45 | 1.36 | 0.74 | 6.96
C=CC(=O)N1C/C(=C\c2cccc3ccccc23)C(=O)/C(=C/c2cccc3ccccc23)C1 | 23.1 | 1.67 | 0.6 | 13.8
C=CC(=O)N1C/C(=C\c2ccccc2)C(=O)/C(=C/c2ccccc2)C1 | 22.1 | 1.25 | 0.8 | 17.7
C=CC(=O)N1C/C(=C\c2ccc(Cl)cc2)C(=O)/C(=C/c2ccc(Cl)cc2)C1 | 38.2 | 1.73 | 0.58 | 22
O=C1/C(=C/c2cccc3ccccc23)CN(C(=O)C[C@H]2C[C@H]3CCCN3[C@]23C(=O)Nc2ccccc23)C/C1=C\c1cccc2ccccc12 (racemic) | 11.8 | 1.74 | 0.57 | 6.76
O=C(C[C@H]1C[C@H]2CCCN2[C@]12C(=O)Nc1ccccc12)N1C/C(=C\c2ccc(F)cc2)C(=O)[C@]2(C[C@H]3CCCN3[C@@]23C(=O)Nc2ccccc23)C1 (racemic) | 8.29 | 0.35 | 2.86 | 23.7
O=C1/C(=C/c2ccccc2Cl)CN(C(=O)C[C@H]2C[C@H]3CCCN3[C@]23C(=O)Nc2ccccc23)C/C1=C\c1ccccc1Cl (racemic) | 19.7 | 1.66 | 0.6 | 11.9
C=CC(=O)N1C/C(=C\c2ccccc2OC)C(=O)/C(=C/c2ccccc2OC)C1 | 28.9 | 3.32 | 0.3 | 8.72

Structure (SMILES) | IC50 [1] [µM] | Ratio IC50 [2] | Ratio IC50 [3] | IC50 [4] [µM]
C=CC(=O)N1C/C(=C\c2ccccc2Cl)C(=O)/C(=C/c2ccccc2Cl)C1 | 36.6 | 2.24 | 0.45 | 16.3
O=C(C[C@H]1C[C@H]2CCCN2[C@]12C(=O)Nc1ccccc12)N1C/C(=C\c2cccc3ccccc23)C(=O)[C@]2(C[C@H]3CCCN3[C@@]23C(=O)Nc2ccccc23)C1 (racemic) | 6.42 | 0.31 | 3.21 | 20.6
Cc1ccc(/C=C2\CN(C(=O)C[C@H]3C[C@H]4CCCN4[C@]34C(=O)Nc3ccccc34)C/C(=C\c3ccc(C)cc3)C2=O)cc1 (racemic) | 25.2 | 1.26 | 0.8 | 20.1
O=C(C[C@H]1C[C@H]2CCCN2[C@]12C(=O)Nc1ccccc12)N1C/C(=C\c2ccc(Cl)cc2)C(=O)[C@]2(C[C@H]3CCCN3[C@@]23C(=O)Nc2ccccc23)C1 (racemic) | 10.9 | 1.38 | 0.73 | 7.92
C=CC(=O)N1C/C(=C\c2ccc(F)cc2)C(=O)/C(=C/c2ccc(F)cc2)C1 | 30.6 | 2.02 | 0.49 | 15.1
O=C(C[C@H]1C[C@H]2CCCN2[C@]12C(=O)Nc1ccccc12)N1C/C(=C\c2ccccc2F)C(=O)[C@]2(C[C@H]3CCCN3[C@@]23C(=O)Nc2ccccc23)C1 (racemic) | 9.09 | 0.37 | 2.7 | 24.6
O=C1/C(=C/c2ccc(F)cc2)CN(C(=O)C[C@H]2C[C@H]3CCCN3[C@]23C(=O)Nc2ccccc23)C/C1=C\c1ccc(F)cc1 (racemic) | 3.99 | 0.2 | 4.97 | 19.8
COc1ccccc1/C=C1\CN(C(=O)C[C@H]2C[C@H]3CCCN3[C@]23C(=O)Nc2ccccc23)C[C@@]2(C[C@H]3CCCN3[C@@]23C(=O)Nc2ccccc23)C1=O (racemic) | 19.2 | 1.68 | 0.59 | 11.4
O=C1/C(=C/c2cccc([N+](=O)[O-])c2)CN(C(=O)C[C@H]2C[C@H]3CCCN3[C@]23C(=O)Nc2ccccc23)C/C1=C\c1cccc([N+](=O)[O-])c1 (racemic) | 18.1 | 3.03 | 0.33 | 5.99
COc1ccccc1/C=C1\CN(C(=O)C[C@H]2C[C@H]3CCCN3[C@]23C(=O)Nc2ccccc23)C/C(=C\c2ccccc2OC)C1=O (racemic) | 9.41 | 0.59 | 1.69 | 15.9
Cc1ccccc1/C=C1\CN(C(=O)C[C@H]2C[C@H]3CCCN3[C@]23C(=O)Nc2ccccc23)C/C(=C\c2ccccc2C)C1=O (racemic) | 17.8 | 1.43 | 0.7 | 12.5
O=C1/C(=C/c2ccc(Cl)cc2)CN(C(=O)C[C@H]2C[C@H]3CCCN3[C@]23C(=O)Nc2ccccc23)C/C1=C\c1ccc(Cl)cc1 (racemic) | 32.3 | 9.6 | 0.1 | 3.36
Cc1ccc(/C=C2\CN(C(=O)C[C@H]3C[C@H]4CCCN4[C@]34C(=O)Nc3ccccc34)C[C@@]3(C[C@H]4CCCN4[C@@]34C(=O)Nc3ccccc34)C2=O)cc1 (racemic) | 17.9 | 0.91 | 1.1 | 19.6
C=CC(=O)N1C/C(=C\c2ccc(C)cc2)C(=O)/C(=C/c2ccc(C)cc2)C1 | 35.1 | 1.94 | 0.51 | 18.1
O=C1/C(=C/c2ccccc2)CN(C(=O)C[C@H]2C[C@H]3CCCN3[C@]23C(=O)Nc2ccccc23)C/C1=C\c1ccccc1 (racemic) | 16.3 | 0.93 | 1.07 | 17.5
C=CC(=O)N1C/C(=C\c2ccccc2F)C(=O)/C(=C/c2ccccc2F)C1 | 54 | 4.58 | 0.22 | 11.8
